Assay results published in article PMC5882164, “A novel calcimimetic agent, evocalcet (MT-4580/KHK7580), suppresses the parathyroid cell function with little effect on the gastrointestinal tract or CYP isozymes in vivo and in vitro” (PLoS ONE, 2018).
Several values for one entry are separate records, joined by “and”; a condition that tells them apart may be missing. Equal values may be shown once. Where a name gives a salt, the structure may show the parent alone.

Key:
serum PTH [1] = test: Serum PTH reduction in common marmosets; type: in vivo, common marmoset; set-up: Serum PTH levels: unit not given here
Description: The study of effect of evocalcet on emesis in common marmoset was performed by referencing a previously reported method. The marmosets (n = 24) used for this study were housed in cages (460 × 600 × 655 mm) with environmental enrichments (wooden perches, swing, and balls) and acclimated for at least 4 weeks. The marmosets were fasted from evening on the day before administration. […] The serum PTH level was measured using a Porcine Intact PTH ELISA kit (Immutopics, Inc., San Clemente, CA, USA). To evaluate the emetic effects in marmosets, evocalcet (50 or 150 μg/kg) or cinacalcet (1500 or 5000 μg/kg) was orally administered (n = 6/drug, dose down titration, n = 12 in total). The observation of emesis was conducted until 4 h after the administration.

gastric emptying = test: Evaluation of gastric emptying in rats (phenol red); type: in vivo, rat
Description: The study of gastric emptying in rats was performed by referencing a previously reported method. […] The rats were divided into eight body-weight-matched groups (n = 8/group). […] Ten minutes later, 0.05 w/v% phenol red, a non-absorbable marker solution (1.5 mL/body), was orally administered. Thirty minutes after the administration of phenol red, the rats were euthanized by cervical dislocation, and the gastric body clamped at the cardiac and pyloric part of the stomach was obtained. The stomach was homogenized by adding 0.1 M NaOH and centrifugated. The supernatant was mixed with 20 w/v% trichloroacetic acid. After centrifugation, the supernatant was mixed with the same volume of 0.5 mol/L NaOH, and the absorbance was measured at 560 nm. The gastric emptying rate was calculated by the following formula: […]=[1-(opticaldensity[[…])]×100

serum PTH [2] = test: Normal rat study: serum PTH level after oral administration; type: in vivo; details: normal rats
Description: (§1) After acclimatization, rats were divided into nine groups (n = 10/group) matched in terms of body weight, and their serum PTH and calcium levels. Vehicle, 0.5% (w/v) methyl cellulose (Wako Pure Chemical Industries, Ltd.) solution orally administered to vehicle treatment group rats. Evocalcet (0.03, 0.1, 0.3, or 1 mg/kg), or cinacalcet (1, 3, 10, or 30 mg/kg) were suspended in the vehicle solution and orally administered to each drug treatment group. Blood samples were collected from the tail vein before and at 0.5, 2, 4, 6, 8, and 24 h after the oral administration.
(§2) The serum PTH level was measured using a Rat Intact PTH ELISA kit (Immutopics, Inc., San Clemente, CA). The serum calcium, phosphate and BUN levels were measured using an auto analyzer (Hitachi High-Technologies Corporation., Tokyo, Japan) or the following test kits: the Calcium E-test WAKO, the Phospha C-test WAKO, or the Blood Urea nitrogen B-test WAKO (Wako Pure Chemical Industries, Ltd., Osaka, Japan).

serum calcium = test: Normal rat study: serum calcium level after oral administration; type: in vivo; set-up: Serum Ca: unit not given here; details: normal rats
Description: as §1, §2

[3] = cinacalcet 1 mg/kg oral, 0 h, group mean of 10 rats
[4] = cinacalcet 1 mg/kg oral, 0 h, individual rat
[5] = cinacalcet 1 mg/kg oral, 0.5 h, group mean of 10 rats
[6] = cinacalcet 1 mg/kg oral, 0.5 h, individual rat
[7] = cinacalcet 1 mg/kg oral, 2 h, group mean of 10 rats
[8] = cinacalcet 1 mg/kg oral, 2 h, individual rat
[9] = cinacalcet 1 mg/kg oral, 4 h, group mean of 10 rats
[10] = cinacalcet 1 mg/kg oral, 4 h, individual rat
[11] = cinacalcet 1 mg/kg oral, 6 h, group mean of 10 rats
[12] = cinacalcet 1 mg/kg oral, 6 h, individual rat
[13] = cinacalcet 1 mg/kg oral, 8 h, group mean of 10 rats
[14] = cinacalcet 1 mg/kg oral, 8 h, individual rat
[15] = cinacalcet 1 mg/kg oral, 24 h, group mean of 10 rats
[16] = cinacalcet 1 mg/kg oral, 24 h, individual rat
[17] = cinacalcet 3 mg/kg oral, 0 h, group mean of 10 rats
[18] = cinacalcet 3 mg/kg oral, 0 h, individual rat
[19] = cinacalcet 3 mg/kg oral, 0.5 h, individual rat
[20] = cinacalcet 3 mg/kg oral, 2 h, individual rat
[21] = cinacalcet 3 mg/kg oral, 4 h, individual rat
[22] = cinacalcet 3 mg/kg oral, 6 h, individual rat
[23] = cinacalcet 3 mg/kg oral, 8 h, individual rat
[24] = cinacalcet 3 mg/kg oral, 24 h, individual rat
[25] = single oral dose, vs vehicle group

C[C@@H](NCCCc1cccc(C(F)(F)F)c1)c1cccc2ccccc12 [cinacalcet, Cinacalcet hydrochloride, reference compound]
Serum PTH levels (serum PTH [1]; 300 μg/kg, 1 h, individual animals): 206.7 and 42.9 and 113.4 | Serum PTH levels (serum PTH [1]; 300 μg/kg, 1 h, mean): 121.0 | Serum PTH levels (serum PTH [1]; 300 μg/kg, 4 h, individual animals): 384.2 and 103.1 and 100.2 | Serum PTH levels (serum PTH [1]; 300 μg/kg, 4 h, mean): 195.8 | Serum PTH levels (serum PTH [1]; 300 μg/kg, before administration, individual animals): 327.6 and 84.8 and 116.8 | Serum PTH levels (serum PTH [1]; 300 μg/kg, before administration, mean): 176.4 | Serum PTH levels (serum PTH [1]; 500 μg/kg, 1 h, individual animals): 66.0 and 160.9 and 28.9 | Serum PTH levels (serum PTH [1]; 500 μg/kg, 1 h, mean): 85.3 | Serum PTH levels (serum PTH [1]; 500 μg/kg, 4 h, individual animals): 370.0 and 348.3 and 172.2 | Serum PTH levels (serum PTH [1]; 500 μg/kg, 4 h, mean): 296.8 | Serum PTH levels (serum PTH [1]; 500 μg/kg, before administration, individual animals): 370.0 and 298.9 and 61.2 | Serum PTH levels (serum PTH [1]; 500 μg/kg, before administration, mean): 243.4 | Minimum effective dose on PTH reduction (serum PTH [1]; oral): 0.5 mg/kg | Gastric Emptying (gastric emptying; 100 mg/kg, group mean): 20.02% | Gastric Emptying (gastric emptying; 100 mg/kg, individual rats): 7.17% and 20.46% and 31.67% and 44.76% and 1.77% and 30.22% and 22.74% and 1.35% | Gastric Emptying (gastric emptying; cinacalcet 10 mg/kg oral, 30 minutes, group mean, n = 8): 55.17% | Gastric Emptying (gastric emptying; cinacalcet 10 mg/kg oral, 30 minutes, individual rats): 44.96% and 61.79% and 57.42% and 52.23% and 44.34% and 52.86% and 67.60% and 60.12% | Gastric Emptying (gastric emptying; cinacalcet 30 mg/kg oral, 30 minutes, group mean, n = 8): 35.72% | Gastric Emptying (gastric emptying; cinacalcet 30 mg/kg oral, 30 minutes, individual rats): 28.35% and 14.64% and 23.99% and 37.69% and 38.94% and 32.71% and 40.60% and 68.85% | Dose inhibiting gastric emptying relative to the dose required for a significant PTH reduction (gastric emptying; oral): approximately 30 fold | Doses that caused a significant delay in gastric emptying (gastric emptying; oral, vs vehicle group): ≥ 30 mg/kg | Serum PTH (serum PTH [2]; [3]): 109.720 | Serum PTH (serum PTH [2]; [4]): 125.722 and 130.447 and 67.586 and 199.824 and 100.664 and 97.298 and 150.924 and 89.996 and 55.272 and 79.471 | Serum PTH (serum PTH [2]; [5]): 80.824 | Serum PTH (serum PTH [2]; [6]): 82.661 and 77.184 and 76.842 and 101.034 and 110.106 and 55.958 and 55.844 and 88.538 and 77.412 | Serum PTH (serum PTH [2]; [7]): 79.608 | Serum PTH (serum PTH [2]; [8]): 48.013 and 15.500 and 63.091 and 101.472 and 98.442 and 56.814 and 145.553 and 109.841 and 112.583 and 44.766 | Serum PTH (serum PTH [2]; [9]): 140.908 | Serum PTH (serum PTH [2]; [10]): 61.596 and 118.199 and 215.679 and 200.323 and 159.521 and 92.828 and 169.313 and 166.494 and 115.974 and 109.149 | Serum PTH (serum PTH [2]; [11]): 165.420 | Serum PTH (serum PTH [2]; [12]): 193.418 and 170.704 and 168.342 and 210.841 and 173.065 and 135.125 and 169.319 and 98.407 and 166.633 | Serum PTH (serum PTH [2]; [13]): 216.453 | Serum PTH (serum PTH [2]; [14]): 174.106 and 258.920 and 229.591 and 209.695 and 192.029 and 200.519 and 209.009 and 246.914 and 151.294 and 292.451 | Serum PTH (serum PTH [2]; [15]): 137.047 | Serum PTH (serum PTH [2]; [16]): 113.627 and 116.500 and 103.304 and 199.622 and 108.780 and 152.854 and 112.730 and 224.397 and 139.120 and 99.534 | Serum PTH (serum PTH [2]; [17]): 102.683 | Serum PTH (serum PTH [2]; [18]): 56.632 and 140.686 and 84.483 and 109.613 | Serum PTH (serum PTH [2]; [19]): 15.500 and 54.018 | Serum PTH (serum PTH [2]; [20]): 42.818 and 15.500 and 32.934 | Serum PTH (serum PTH [2]; [21]): 141.716 and 112.265 and 135.633 and 62.560 | Serum PTH (serum PTH [2]; [22]): 155.316 and 207.503 and 133.171 | Serum PTH (serum PTH [2]; [23]): 158.155 and 206.865 and 189.885 and 126.682 | Serum PTH (serum PTH [2]; [24]): 109.678 and 94.507 and 141.634 and 226.462 | Doses that significantly reduced the serum PTH level (serum PTH [2]; [25]): ≥ 1 mg/kg | Serum Ca (serum calcium; [3]): 11.5 | Serum Ca (serum calcium; [4]): 14.6 and 10.4 and 11.2 and 10.8 and 12.0 and 11.0 and 11.4 | Serum Ca (serum calcium; [5]): 10.5 | Serum Ca (serum calcium; [6]): 10.4 and 10.8 and 10.0 and 10.6 and 10.2 | Serum Ca (serum calcium; [7]): 10.3 | Serum Ca (serum calcium; [8]): 10.4 and 10.2 and 10.0 and 10.6 | Serum Ca (serum calcium; [9]): 9.9 | Serum Ca (serum calcium; [10]): 8.0 and 10.2 and 9.8 and 10.4 and 10.0 | Serum Ca (serum calcium; [11]): 10.0 | Serum Ca (serum calcium; [12]): 9.6 and 9.4 and 10.0 and 10.4 and 10.2 | Serum Ca (serum calcium; [13]): 10.1 | Serum Ca (serum calcium; [14]): 10.0 and 10.4 and 10.2 and 9.8 | Serum Ca (serum calcium; [15]): 12.1 | Serum Ca (serum calcium; [16]): 12.2 and 11.8 and 11.2 and 12.6 and 11.4 and 13.0 and 11.0 and 12.4 | Serum Ca (serum calcium; [17]): 11.1 | Serum Ca (serum calcium; [18]): 11.2 and 9.4 and 11.4 | Serum Ca (serum calcium; cinacalcet 3 mg/kg oral, 0.5 h, group mean of 10 rats): 10.6 | Serum Ca (serum calcium; [19]): 10.8 and 10.6 and 11.2 and 10.2 | Serum Ca (serum calcium; cinacalcet 3 mg/kg oral, 2 h, group mean of 10 rats): 9.8 | Serum Ca (serum calcium; [20]): 9.8 and 8.6 and 10.0 | Serum Ca (serum calcium; cinacalcet 3 mg/kg oral, 4 h, group mean of 10 rats): 9.3 | Serum Ca (serum calcium; [21]): 9.2 and 8.8 and 9.4 | Serum Ca (serum calcium; cinacalcet 3 mg/kg oral, 6 h, group mean of 10 rats): 9.3 | Serum Ca (serum calcium; [22]): 9.4 and 8.8 and 9.6 | Serum Ca (serum calcium; cinacalcet 3 mg/kg oral, 8 h, group mean of 10 rats): 9.7 | Serum Ca (serum calcium; [23]): 9.6 and 9.2 and 9.8 | Serum Ca (serum calcium; cinacalcet 3 mg/kg oral, 24 h, group mean of 10 rats): 12.1 | Serum Ca (serum calcium; [24]): 12.0 and 11.2 and 11.6 | Serum Ca (serum calcium; cinacalcet 10 mg/kg oral, 0 h, individual rat): 9.6 and 11.4 and 10.6 and 11.2 | Serum Ca (serum calcium; cinacalcet 10 mg/kg oral, 0.5 h, individual rat): 10.0 and 10.2 and 10.8 and 9.8 | Serum Ca (serum calcium; cinacalcet 10 mg/kg oral, 2 h, individual rat): 8.6 and 9.6 and 9.4 and 9.2 | Serum Ca (serum calcium; cinacalcet 10 mg/kg oral, 4 h, individual rat): 8.2 and 9.2 and 8.8 | Serum Ca (serum calcium; cinacalcet 10 mg/kg oral, 6 h, individual rat): 8.0 and 8.8 and 8.6 | Serum Ca (serum calcium; cinacalcet 10 mg/kg oral, 8 h, individual rat): 8.6 and 10.4 and 8.4 and 8.8 | Serum Ca (serum calcium; cinacalcet 10 mg/kg oral, 24 h, individual rat): 11.4 and 11.6 and 11.0 and 10.2 | Doses that significantly reduced the serum calcium level (serum calcium; [25]): ≥ 1 mg/kg
